According to PMC11184554, “Nature-Inspired Gallinamides Are Potent Antischistosomal Agents: Inhibition of the Cathepsin B1 Protease Target and Binding Mode Analysis” (ACS Infectious Diseases, 2024):
“And” between values parts separate entries of the source, which are not always exact repeats. Equal values may be shown once.

Key:
Format in all cases: biochemical
legumain = assay: Protease activity in S. mansoni adult extract, Cbz–Ala–Ala–Asn–AMC; conditions: 1 μM gallinamide A, substrate Cbz–Ala–Ala–Asn–AMC, in the presence of E-64, mean ± SD
Source text: (§1) We investigated whether gallinamide A inhibits the activity of the major proteases associated with proteolytic digestion in the adult schistosome gut. The digestive protease network includes the cysteine proteases cathepsins B, C, L from clan CA and legumain from clan CD, and an aspartic protease cathepsin D from clan AA.[11],[12] Their respective activities can be measured in protein extracts of S. mansoni using a kinetic assay with specific fluorogenic substrates. In addition, these activities can be attributed to particular proteases based on sensitivity to selective inhibitors[30]−[32] (Table 1). Accordingly, we exposed worm extracts to gallinamide A and analyzed the individual protease activities. Gallinamide A inhibited both the carboxydipeptidase (98%) and endopeptidase activities (94%) of cathepsin B as measured with the respective substrates, Abz–Phe–Arg–Val–Nph[15] and Cbz–Arg–Arg–AMC[33],[34] (Table 1). The activity measured with the Cbz–Phe–Arg–AMC substrate,[11],[13],[16],[33],[35] which can be cleaved by both cathepsins B and L, was inhibited by gallinamide A to a lesser extent (72%). […]
(§2) Proteolytic activities in S. mansoni adult extracts were measured in a continuous kinetic assay using the following peptidyl fluorogenic substrates (Bachem) or internally quenched FRET substrates (IOCB): 50 μM Cbz–Phe–Arg–AMC for cathepsins B and L,[13],[15] […]

cathepsin D = assay: Protease activity in S. mansoni adult extract, FRET substrate; conditions: 1 μM gallinamide A, substrate Abz–Lys–Pro–Ala–Glu–Phe–Nph–Ala–Leu, in the presence of E-64, mean ± SD
Source text: as §1, §2

cathepsins B and L = assay: Protease activity in S. mansoni adult extract, Cbz–Phe–Arg–AMC; conditions: 1 μM gallinamide A, endopeptidase, substrate Cbz–Phe–Arg–AMC, mean ± SD
Source text: as §1, §2

cathepsin C = molecular target: T1, cathepsin C (Schistosoma mansoni, UniProt Q26563); assay: Protease activity in S. mansoni adult extract, Gly–Arg–AMC; conditions: 1 μM gallinamide A, exopeptidase (aminodipeptidase), substrate Gly–Arg–AMC, mean ± SD
T1 construct: from tissue; host or cells: soluble protein extract of mixed sex S. mansoni adults
T1 sequence (Q26563 218-454): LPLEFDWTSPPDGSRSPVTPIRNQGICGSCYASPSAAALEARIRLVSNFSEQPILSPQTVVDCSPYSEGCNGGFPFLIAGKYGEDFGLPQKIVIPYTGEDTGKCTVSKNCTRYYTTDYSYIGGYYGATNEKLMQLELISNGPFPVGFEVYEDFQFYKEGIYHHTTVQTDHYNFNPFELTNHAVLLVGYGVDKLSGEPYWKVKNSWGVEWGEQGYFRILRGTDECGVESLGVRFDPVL
Source text: as §1, §2

cathepsin B = assay: Protease activity in S. mansoni adult extract, cathepsin B substrates (continuous fluorometric assay); conditions: 1 μM gallinamide A, relative to uninhibited control, mean ± SD
Source text: as §1, §2

CC[C@H](C)[C@@H](C(=O)O[C@@H](CC(C)C)C(=O)N[C@@H](CC(C)C)C(=O)N[C@@H](C)/C=C/C(=O)N1C(=O)C=C(OC)[C@@H]1C)N(C)C [gallinamide A]
inhibition (%) (legumain): < 10% | inhibition (%) (legumain; listed as Gallinamide A): 8.2 ± 0.1% | inhibition (%) (cathepsin D): < 10% | inhibition (%) (cathepsin D; listed as Gallinamide A): 0.01 ± 1.54% | inhibition (%) (cathepsins B and L): 72% | inhibition (%) (cathepsins B and L; listed as Gallinamide A): 71.9 ± 2.0% | inhibition (%) (cathepsin C): < 10% | inhibition (%) (cathepsin C; listed as Gallinamide A): 2.8 ± 1.9% | inhibition (%) (cathepsin B; endopeptidase activity, substrate Cbz–Arg–Arg–AMC): 94% and 93.7 ± 0.3% | inhibition (%) (cathepsin B; exopeptidase (carboxydipeptidase) activity, substrate Abz–Phe–Arg–Val–Nph): 98.0 ± 2.2%
